# Where two headings read alike, the source gives them in different places.
# Test system: M. tuberculosis H37Rv
# Assay: Mycobacterium tuberculosis H37Rv Inhibition Assay (Whole Cell Assay), MIC
# Format: cell-based
# [1] = 144 h, M. tuberculosis H37Rv, Middlebrook 7H9 + ADC, 37° C. six days, resazurin readout, read-out: MIC_H37Rv
# [2] = M. tuberculosis H37Rv whole cell assay, value from repeated testing of the compound, read-out: MIC
SMILES,MIC [1] [µM],MIC [2] [µM]
"COc1cc(-c2nnn(Cc3ccc(F)cc3)n2)ccc1S(=O)(=O)NCCO [Example 47, 4-(2-(4-fluorobenzyl)-2H-tetrazol-5-yl)-N-(2-hydroxyethyl)-2-methoxybenzenesulfonamide]",< 0.1,
COc1ccc(Cn2nnc(-c3ccc(S(=O)(=O)NC[C@@H](C)O)cc3)n2)nc1 [Example 26],10 to 25,
"COc1cc(-c2nnn(Cc3ccc(F)cc3)n2)ccc1S(=O)(=O)NCC(N)=O [Example 53, 2-(4-(2-(4-fluorobenzyl)-2H-tetrazol-5-yl)-2-methoxyphenylsulfonamido)acetamide]",,0.04
"O=S(=O)(NCCO)c1ccc(-c2cn(Cc3ccc(F)cn3)nn2)cc1 [Example 62, (4-(1-((5-fluoropyridin-2-yl)methyl)-1H-1,2,3-triazol-4-yl)-N-(2-hydroxyethyl)benzenesulfonamide)]",1 to 5,
"COc1cc(-c2nnn(C(C)c3ccc(F)cc3)n2)ccc1S(=O)(=O)NCC(N)=O (single isomer, unassigned) [Example 115 Isomer 2, 2-(4-(2-(1-(4-fluorophenyl)ethyl)-2H-tetrazol-5-yl)-2-methoxyphenylsulfonamido)acetamide]",,0.45 to 1.25
"O=S(=O)(NCCO)c1ccc(-c2nnn(CC3CCOCC3)n2)cc1 [Example 105, N-(2-hydroxyethyl)-4-(2-((tetrahydro-2H-pyran-4-yl)methyl)-2H-tetrazol-5-yl)benzenesulfonamide]",1 to 5,
Cc1ccc(Cn2nnc(-c3ccc(S(=O)(=O)NCC(N)=O)cc3)n2)nc1 [Example 40],< 0.1,
Cc1nccc(Cn2nnc(-c3ccc(S(=O)(=O)NCCO)cc3)n2)n1 [Example 23],5 to 10,
"CNS(=O)(=O)c1ccc(-c2nnn(Cc3ccncc3)n2)cc1 [Example 4, N-methyl-4-(2-(pyridin-4-ylmethyl)-2H-tetrazol-5-yl)benzenesulfonamide]",1 to 5,
"COc1cc(-c2nnn(Cc3ccc(F)cn3)n2)ccc1S(=O)(=O)NCCO [Example 50, 4-(2-((5-fluoropyridin-2-yl)methyl)-2H-tetrazol-5-yl)-N-(2-hydroxyethyl)-2-methoxybenzenesulfonamide]",1 to 5,
COc1ccc(Cn2nnc(-c3ccc(S(=O)(=O)NC[C@@H](C)O)cc3)n2)cc1 [Example 28],1 to 5,
O=S(=O)(NCCO)c1ccc(-c2cn(Cc3ccncc3)nn2)cc1 [Example 65],< 0.1,
"O=S(=O)(NCCO)c1ccc(-c2nnn(CC3CCOCC3)n2)cc1F [Example 78, 2-fluoro-N-(2-hydroxyethyl)-4-(2-((tetrahydro-2H-pyran-4-yl)methyl)-2H-tetrazol-5-yl)benzenesulfonamide]",< 0.1,
"Cc1cc(S(=O)(=O)NCCO)ccc1-c1nnn(CC2CCCCO2)n1 (single isomer, unassigned) [Example 74 Isomer 1, N-(2-hydroxyethyl)-3-methyl-4-(2-((tetrahydro-2H-pyran-2-yl)methyl)-2H-tetrazol-5-yl)benzenesulfonamide]",5 to 10,
"CNS(=O)(=O)c1ccc(-c2nnn(Cc3ccc(C#N)cc3)n2)cc1 [Example 108, 4-(2-(4-cyanobenzyl)-2H-tetrazol-5-yl)-N-methylbenzenesulfonamide]",1 to 5,
"O=S(=O)(NCCO)c1ccc(-c2nnn(Cc3ccc(Cl)cn3)n2)cc1 [Example 18, 4-(2-((5-chloropyridin-2-yl)methyl)-2H-tetrazol-5-yl)-N-(2-hydroxyethyl)benzenesulfonamide]",< 0.1,
"NC(=O)CNS(=O)(=O)c1ccc(-c2nnn(Cc3ccncc3)n2)cc1 [Example 46, 2-(4-(2-(pyridin-4-ylmethyl)-2H-tetrazol-5-yl)phenylsulfonamido)acetamide]",< 0.1,
C[C@@H](O)CNS(=O)(=O)c1ccc(-c2nnn(Cc3ccncc3)n2)cc1 [Example 12],< 0.1,
C[C@@H](O)CNS(=O)(=O)c1ccc(-c2nnn(CC3CCC(F)(F)CC3)n2)cc1 [Example 13],10 to 25,
"CNS(=O)(=O)c1ccc(-c2nnn(Cc3ccc(F)cc3)n2)cc1 [Example 3, 4-(2-(4-fluorobenzyl)-2H-tetrazol-5-yl)-N-methylbenzenesulfonamide]",1 to 5,
COc1ccc(Cn2nnc(-c3ccc(S(=O)(=O)NCCO)cc3)n2)cc1F [Example 30],< 0.1,
"COc1cc(-c2nnn(Cc3ccc(C#N)cc3)n2)ccc1S(=O)(=O)NCCO [Example 49, 4-(2-(4-cyanobenzyl)-2H-tetrazol-5-yl)-N-(2-hydroxyethyl)-2-methoxybenzenesulfonamide]",< 0.1,
COc1cc(-c2nnn(Cc3ccncc3)n2)ccc1S(=O)(=O)NCC(N)=O [Example 55],< 0.1,
COC(=O)CNS(=O)(=O)c1ccc(-c2nnn(Cc3ccc(F)cc3)n2)cc1 [Example 43],1 to 5,
"Cc1cc(S(=O)(=O)NCCO)ccc1-c1nnn(Cc2ccc(F)cn2)n1 [Example 73, 4-(2-((5-fluoropyridin-2-yl)methyl)-2H-tetrazol-5-yl)-N-(2-hydroxyethyl)-3-methylbenzenesulfonamide]",< 0.1,
O=S(=O)(NCCO)c1ccc(-c2nnn(Cc3ccc(OC(F)(F)F)cc3)n2)cc1 [Example 97],1 to 5,
"O=S(=O)(NCCO)c1ccc(-c2nnn(Cc3ccc(F)cn3)n2)cc1 [Example 29, 4-(2-((5-fluoropyridin-2-yl)methyl)-2H-tetrazol-5-yl)-N-(2-hydroxyethyl)benzenesulfonamide]",< 0.1,0.07 to 0.16

SMILES,MIC [1] [µM],MIC [2] [µM]
N#Cc1ccc(Cn2nnc(-c3ccc(S(=O)(=O)NCCO)cc3)n2)nc1 [Example 20],< 0.1,
O=S(=O)(NCC(O)CO)c1ccc(-c2nnn(Cc3ccc(F)cc3)n2)cc1 (stereo not drawn) [Example 17],5 to 10,
COc1ccc(Cn2cc(-c3ccc(S(=O)(=O)NCCO)cc3)nn2)cc1 [Example 63],< 0.1,
O=S(=O)(NCCO)c1ccc(-c2nnn(Cc3ccc(C(F)F)cc3)n2)cc1 [Example 10],< 0.1,
Cc1cc(Cn2nnc(-c3ccc(S(=O)(=O)NCCO)cc3)n2)ccn1 [Example 34],1 to 5,
"O=S(=O)(NCCO)c1ccc(-c2nnn(CC3CCCCC3)n2)cc1F [Example 79, 4-(2-(cyclohexylmethyl)-2H-tetrazol-5-yl)-2-fluoro-N-(2-hydroxyethyl)benzenesulfonamide]",< 0.1,
NC(=O)CNS(=O)(=O)c1ccc(-c2nnn(CC3CCC(F)(F)CC3)n2)cc1 [Example 39],< 0.1,
CCOc1ccc(Cn2nnc(-c3ccc(S(=O)(=O)NCCO)cc3)n2)cc1 [Example 99],< 0.1,
"O=S(=O)(NCCO)c1ccc(-c2nnn(CC3CCCCC3)n2)cc1 [Example 100, 4-(2-(cyclohexylmethyl)-2H-tetrazol-5-yl)-N-(2-hydroxyethyl)benzenesulfonamide]",< 0.1,
O=S(=O)(NCCO)c1ccc(-c2nnn(Cc3ncc(F)cc3F)n2)cc1 [Example 21],1 to 5,
"N#CCNS(=O)(=O)c1ccc(-c2nnn(CC3CCOCC3)n2)cc1 [Example 89, N-(cyanomethyl)-4-(2-((tetrahydro-2H-pyran-4-yl)methyl)-2H-tetrazol-5-yl)benzenesulfonamide]",< 0.1,
"O=S(=O)(NCCO)c1ccc(-c2nnn(Cc3cccnc3)n2)cc1 [Example 102, N-(2-hydroxyethyl)-4-(2-(pyridin-3-ylmethyl)-2H-tetrazol-5-yl)benzenesulfonamide]",< 0.1,
O=S(=O)(NCCO)c1ccc(-c2nnn(Cc3ccc(C(F)(F)F)cc3)n2)cc1 [Example 98],5 to 10,
NC(=O)CNS(=O)(=O)c1ccc(-c2cn(CC3CCC(F)(F)CC3)nn2)cc1 [Example 69],1 to 5,
Cc1cc(Cn2nnc(-c3ccc(S(=O)(=O)NCC(N)=O)cc3)n2)ccn1 [Example 42],< 0.1,
"O=S(=O)(NCCO)c1ccc(-c2nnn(Cc3ccc(F)cn3)n2)cc1F [Example 75, 2-fluoro-4-(2-((5-fluoropyridin-2-yl)methyl)-2H-tetrazol-5-yl)-N-(2-hydroxyethyl) benzenesulfonamide]",< 0.1,0.16
"COc1ccc(Cn2nnc(-c3ccc(S(=O)(=O)NCCO)c(OC)c3)n2)nc1 [Example 109, N-(2-hydroxyethyl)-2-methoxy-4-(2-((5-methoxypyridin-2-yl)methyl)-2H-tetrazol-5-yl)benzenesulfonamide]",1 to 5,
"O=S(=O)(NCCO)c1c(F)cc(-c2nnn(Cc3ccc(F)cn3)n2)cc1F [Example 87, 2,6-difluoro-4-(2-((5-fluoropyridin-2-yl)methyl)-2H-tetrazol-5-yl)-N-(2-hydroxyethyl)benzenesulfonamide]",,≤ 0.04
C[C@@H](O)CNS(=O)(=O)c1ccc(-c2nnn(Cc3ccc(F)cn3)n2)cc1 [Example 25],< 0.1,0.6
N#CCNS(=O)(=O)c1ccc(-c2nnn(Cc3ccncc3)n2)cc1 [Example 56],< 0.1,
"Cc1cc(S(=O)(=O)NCCO)c(F)cc1-c1nnn(Cc2ccc(F)cn2)n1 [Example 110, 2-fluoro-4-(2-((5-fluoropyridin-2-yl)methyl)-2H-tetrazol-5-yl)-N-(2-hydroxyethyl)-5-methylbenzenesulfonamide]",< 0.1,
"CNS(=O)(=O)c1ccc(-c2nnn(Cc3ccncc3)n2)cc1OC [Example 51, 2-methoxy-N-methyl-4-(2-(pyridin-4-ylmethyl)-2H-tetrazol-5-yl)benzenesulfonamide]",1 to 5,
"COc1ccc(Cn2nnc(-c3ccc(S(=O)(=O)NCC#N)cc3)n2)cn1 [Example 93, N-(cyanomethyl)-4-(2-((6-methoxypyridin-3-yl)methyl)-2H-tetrazol-5-yl)benzenesulfonamide]",< 0.1,
N#CCNS(=O)(=O)c1ccc(-c2cn(Cc3ccncc3)nn2)cc1 [Example 60],< 0.1,
"Cc1ccc(Cn2nnc(-c3ccc(S(=O)(=O)NCCO)cc3)n2)cn1 [Example 101, N-(2-hydroxyethyl)-4-(2-((6-methylpyridin-3-yl)methyl)-2H-tetrazol-5-yl)benzenesulfonamide]",< 0.1,
"COc1ccc(Cn2nnc(-c3ccc(S(=O)(=O)NCCO)cc3)n2)cc1 [Example 6, N-(2-hydroxyethyl)-4-(2-(4-methoxybenzyl)-2H-tetrazol-5-yl)benzenesulfonamide]",< 0.1,
Cc1ccc(Cn2cc(-c3ccc(S(=O)(=O)NCCO)cc3)nn2)nc1 [Example 67],10 to 25,

# From patent US11072591B2, “Tetrazole compounds and their use in the treatment of tuberculosis” (GLAXOSMITHKLINE INTELLECTUAL PROPERTY DEVELOPMENT LIMITED, priority 2017, dated 2021)
